Assay results published in patent US20140045858A1, “COMPOUND P[…] ALZHEIMER'S DISEASE AND PREPARATION METHOD THEREOF” (priority 2011, published 2014).

Columns and labels:
[1] = system: rats' cholinergic and oxidative systems; experiment: Pharmacodynamic study, overall conclusions (rat amnesia model); format: in vivo; conditions: conclusion from Groups 3, 6 and 7, single-component patches
Description: Finally, the activities/contents of AChE, SOD, GSH-Px and MDA in Groups 3-5 approximate to those in the blank control group, that is to say, the levels of oxidase in rat's cholinergic and oxidative systems in the various delivery groups are close to normal level.

[2] = oral delivery; cited from earlier work

Row | Compound | anti-oxidation effect [1] | function of anti-cholinergic damage [1] | half life (t½) [2] [h]
1 | C/C=C1\[C@H]2C=C(C)C[C@]1(N)c1ccc(=O)[nH]c1C2 [huperzine A] | certain effect of anti-oxidation | certain function of anti-cholinergic damage | –
2 | Cc1nc(C)c(C)nc1C.O=P(O)(O)O [tetramethylpyrazine phosphate] | very strong anti-oxidation effect | relatively poor function of anti-cholinergic damage | 2.89
